# Laboratory results from article PMC6707612, “Cyclic-di-GMP binds to histidine kinase RavS to control RavS-RavR phosphotransfer and regulates the bacterial lifestyle transition between virulence and swimming” (PLoS Pathogens, 2019).
# “Also recorded” adds a separate entry of the source.
# Experiments:
# [1] = target: T1, RavS^ΔTrM (Xanthomonas campestris pv. campestris, UniProt Q8P9A6); assay: microscale thermophoresis (MST) binding; details: 20 nM fluorescein-labelled nucleotide
# T1 sequence (Q8P9A6 47-697): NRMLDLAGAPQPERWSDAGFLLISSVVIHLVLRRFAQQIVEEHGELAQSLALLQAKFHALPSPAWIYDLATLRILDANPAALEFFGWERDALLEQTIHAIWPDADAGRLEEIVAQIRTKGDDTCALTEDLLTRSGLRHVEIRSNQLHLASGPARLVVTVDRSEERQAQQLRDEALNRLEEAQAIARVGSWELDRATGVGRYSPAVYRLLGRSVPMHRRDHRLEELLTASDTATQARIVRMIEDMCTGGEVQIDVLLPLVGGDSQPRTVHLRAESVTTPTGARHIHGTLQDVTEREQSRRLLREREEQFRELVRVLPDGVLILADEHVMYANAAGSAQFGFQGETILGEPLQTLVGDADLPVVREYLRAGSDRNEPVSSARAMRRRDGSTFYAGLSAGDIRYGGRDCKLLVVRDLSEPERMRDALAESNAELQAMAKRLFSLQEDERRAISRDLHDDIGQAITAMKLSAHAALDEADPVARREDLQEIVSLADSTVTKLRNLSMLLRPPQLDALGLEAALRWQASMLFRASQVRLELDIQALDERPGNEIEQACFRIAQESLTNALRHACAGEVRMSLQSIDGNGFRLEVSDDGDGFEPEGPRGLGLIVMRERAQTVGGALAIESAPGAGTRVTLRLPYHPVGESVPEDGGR
# Description: (a) c-di-GMP enhances RavS-RavR phosphotransfer in vitro. A total of 5 μM RavS^ΔN was autophosphorylated for 15 min by the addition of 10 μCi [γ-^32P]ATP. A total of 15 μM RavR^ΔEAL or RavR^ΔEAL(D496A) was added and incubated for 30 min at 25°C. A total of 100 μM c-di-GMP was added if necessary. The reactions were terminated with 5× SDS loading buffer before autoradiography. The experiment was repeated three times. (b) Time course analyses of the impact of c-di-GMP on the velocity of RavS-RavR phosphotransfer. The autophosphorylation and phosphotransfer reactions were set as mentioned in (a). Various concentrations of c-di-GMP were added to the reactions and isotopic signals (band intensities) of RavS~P were measured after autoradiography. (c–d) c-di-GMP triggered an increase in RavS-RavR phosphotransfer in a dose-dependent manner. (c) Various concentrations of c-di-GMP (0, 5, 10, 15, 30, 50, 75 and 100 μM) were added to the RavS-RavR phosphotransfer reactions. (d) The phosphorylated level of RavS^ΔN~P was quantified by ImageJ and the EC50 value was estimated by Origin 8.5 software. In (b) and (d), the intensity of each data point is the average from three experimental repeats. (e) c-di-GMP triggered increase in RavS-RavR phosphotransfer is highly specific. […] The interaction between RavS^ΔTrM and various nucleotides, including fl-c-di-GMP, fl-cGMP and fl-c-di-AMP, were measured by microscale thermophoresis (MST). A total of 20 nM fluorescein-labelled nucleotides and increasing concentrations of proteins were incubated and measured by MST. The dissociation constant (Kd) was quantified to estimate the binding affinity. […]
# The interaction between c-di-GMP nucleotides and various proteins was measured by using MST with a fluorescein-labelled c-di-GMP (2′-Fluo-AHC-c-di-GMP, abbreviated as fl-c-di-GMP; 2′-Fluo-AHC-c-di-AMP, fl-c-di-AMP; 2′-Fluo-AHC-cGMP, fl-cGMP; Biolog, Germany). These chemicals contain carboxyfluorescein that has excitation and emission wavelengths of 497 nm and 520 nm, respectively, which can be detected directly by a MST instrument. […]
# [2] = target: T2, RavS^ΔN (Xanthomonas campestris pv. campestris, UniProt Q8P9A6); assay: in vitro RavS-RavR phosphotransfer assay (RavS~P level by autoradiography); type: biochemical; details: specificity control nucleotides
# T2 sequence (Q8P9A6 352-697): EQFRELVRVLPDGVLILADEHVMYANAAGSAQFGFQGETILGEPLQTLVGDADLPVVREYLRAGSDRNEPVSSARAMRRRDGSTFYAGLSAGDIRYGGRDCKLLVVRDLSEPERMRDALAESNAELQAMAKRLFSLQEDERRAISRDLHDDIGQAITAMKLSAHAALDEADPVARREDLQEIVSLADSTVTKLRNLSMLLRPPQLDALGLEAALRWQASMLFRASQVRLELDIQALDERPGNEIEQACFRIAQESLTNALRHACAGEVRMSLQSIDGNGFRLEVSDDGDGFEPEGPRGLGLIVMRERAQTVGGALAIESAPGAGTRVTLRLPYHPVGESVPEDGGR
# Description: (a) c-di-GMP enhances RavS-RavR phosphotransfer in vitro. A total of 5 μM RavS^ΔN was autophosphorylated for 15 min by the addition of 10 μCi [γ-^32P]ATP. A total of 15 μM RavR^ΔEAL or RavR^ΔEAL(D496A) was added and incubated for 30 min at 25°C. A total of 100 μM c-di-GMP was added if necessary. The reactions were terminated with 5× SDS loading buffer before autoradiography. The experiment was repeated three times. (b) Time course analyses of the impact of c-di-GMP on the velocity of RavS-RavR phosphotransfer. The autophosphorylation and phosphotransfer reactions were set as mentioned in (a). Various concentrations of c-di-GMP were added to the reactions and isotopic signals (band intensities) of RavS~P were measured after autoradiography. (c–d) c-di-GMP triggered an increase in RavS-RavR phosphotransfer in a dose-dependent manner. (c) Various concentrations of c-di-GMP (0, 5, 10, 15, 30, 50, 75 and 100 μM) were added to the RavS-RavR phosphotransfer reactions. (d) The phosphorylated level of RavS^ΔN~P was quantified by ImageJ and the EC50 value was estimated by Origin 8.5 software. In (b) and (d), the intensity of each data point is the average from three experimental repeats. (e) c-di-GMP triggered increase in RavS-RavR phosphotransfer is highly specific. […] (f) RavS specifically interacts with fl-c-di-GMP. The interaction between RavS^ΔTrM and various nucleotides, including fl-c-di-GMP, fl-cGMP and fl-c-di-AMP, were measured by microscale thermophoresis (MST). A total of 20 nM fluorescein-labelled nucleotides and increasing concentrations of proteins were incubated and measured by MST. The dissociation constant (Kd) was quantified to estimate the binding affinity. Each experiment was repeated three times.
# An in vitro autophosphorylation assay was conducted as described in our previous study. Purified protein was incubated with 10 μM ATP containing 10 μCi [γ-^32P]ATP (PerkinElmer, USA) in the reaction buffer (50 mM Tris-HCl, pH 7.8, 25 mM NaCl, 25 mM KCl, 5 mM MgCl2, 2 mM DTT) for the indicated time at 28°C. If necessary, c-di-GMP was added to the mixture at the same time as ATP. For the phosphoryl transfer assay, purified RR protein or its derivative was added into the reaction mixture containing the phosphorylated HK. The autophosphorylation or phosphoryl transfer reaction was terminated by adding 5× SDS-PAGE loading buffer. Phosphorylated proteins were separated by 12% SDS-PAGE. After electrophoresis, gels were exposed to a phosphor screen (GE Healthcare) and the autoradiographic signals were detected by a Typhoon FLA7000 (GE Healthcare).
# [3] = target: EAL domain of RavR (Xanthomonas campestris pv. campestris); assay: SEC + AUC; purified EAL protein, 15 uM, incubated with 300 uM c-di-GMP in phosphodiesterase reaction buffer (50 mM Tris-HCl pH 7.5, 250 mM NaCl, 25 mM KCl, 10 mM MgCl2, 2 mM DTT) at 4 C for 30 min; Superdex 75 10/300 GL to separate dimer and monomer; molecular weight of each fraction determined by analytical ultracentrifugation
Compound,impact on RavS phosphotransferase activity / velocity of RavS-RavR phosphotransfer [2],further results
2′-Fluo-AHC-c-di-AMP [fl-c-di-AMP],–,dissociation constant (Kd) [1]: no binding; also recorded: completely failed to bind
2′-Fluo-AHC-cGMP [fl-cGMP],–,Kd ([1]; read-out: dissociation constant (Kd)): 64.4 ± 9.43 µM
Nc1nc2c(ncn2[C@@H]2O[C@H](COP(=O)(O)O)[C@@H](O)[C@H]2O)c(=O)[nH]1 [GMP],did not affect; also recorded: did not have any impact,–
Nc1nc2c(ncn2[C@@H]2O[C@H](COP(=O)(O)OP(=O)(O)OP(=O)(O)O)[C@@H](O)[C@H]2O)c(=O)[nH]1 [GTP],did not affect; also recorded: did not have any impact,–
Nc1ncnc2c1ncn2[C@@H]1O[C@@H]2COP(=O)(O)O[C@H]3[C@@H](O)[C@H](n4cnc5c(N)ncnc54)O[C@@H]3COP(=O)(O)O[C@H]2[C@H]1O [c-di-AMP],did not affect; also recorded: did not have any impact,–
Nc1nc2c(ncn2[C@@H]2O[C@@H]3COP(=O)(O)O[C@H]3[C@H]2O)c(=O)[nH]1 [cGMP],did not affect; also recorded: did not have any impact,–
EAL domain of RavR (domain or fragment),–,stoichiometry N [3]: 2
